Data reported in patent publication US9328084B2, “Nitrogen-containing biphenyl compounds, pharmaceutical compositions of same, preparation methods and anti-HIV-1 uses thereof” (Kunming Institute of Botany, The Chinese Academy of Sciences, priority 2010, dated 2016).
Where two headings read alike, the source gives them in different places.

How the values were obtained:
Format in all cases: cell-based
[1] = tested on: C8166 cells; assay: Cytotoxicity test on C8166 host cell (MTT colorimetry); conditions: 3 days
Procedure: (§1) Cytotoxicity Test of the Compounds 5-12 Obtained in the Above Examples on C8166 Host Cell 100 μL of 4×10^5/mL C8166 cell suspension was mixed with different candidate compound solutions. Set three repeated wells. Meanwhile, set compound-free control wells. Culture was conducted at 37° C. and 5% CO2 for three days. Cell toxicity was tested using MTT colorimetry. OD value was tested using ELX800 ELISA instrument, with the measurement wavelength of 595 nm and the reference wavelength of 630 nm. […] Calculation method and formula: dose-response curve was plotted according to the experimental results; according to Reed & Muench method, 50% effective concentration (EC50) to inhibit viruses, 50% Cytotoxic Concentration (CC50) and anti-HIV-1 activity in the Therapeutic Index (TI) were calculated according to the formula: TI=CC50/EC50.

[2] = tested on: HIV-1IIIB; assay: Inhibition test on HIV-1IIIB induced cytopathic effect (syncytium formation) of C8166; conditions: for EC50: Human immunodeficiency virus 1, C8166, 72 h, HIV-1IIIB in C8166 cells, 3 days; for Therapeutic index (TI): TI=CC50/EC50; for anti-HIV-1 activity (in words): comment on Table 1, relative to Compound 5
Procedure: Inhibition Test of the Compounds 5-12 Obtained in the Above Examples on HIV-1IIIB Induced Cytopathic Effect (CPE) of C8166 8×10^5/mL C8166 cell suspension was inoculated in 50 μL/well into a 96-well cell culture plate containing compound diluted in multiple proportions in 100 μL/well, to which was then added 50 μL of HIV-1IIIB diluted supernatant (M.O.I. 0.0016). Set three repeated wells, at the same time, set normal cell control wells that are free of the compound. Culture was conducted at 37° C. and 5% CO2 for three days. Syncytium formation was counted using an inverted microscope (100×). EC50 (50% Effective Concentration), i.e., the concentration of the compound that inhibits 50% syncytium formation, was calculated. Calculation method and formula: dose-response curve was plotted according to the experimental results; according to Reed & Muench method, 50% effective concentration (EC50) to inhibit viruses, 50% Cytotoxic Concentration (CC50) and anti-HIV-1 activity in the Therapeutic Index (TI) were calculated according to the formula: TI=CC50/EC50.

[3] = Cytotoxicity test on C8166 host cell (MTT colorimetry); conditions: human, C8166 cells (T lymphocyte cell line)
Procedure: as §1

[4] = read-out: Syncytia inhibition (EC50) 2
[5] = read-out: Syncytia inhibition (EC50) 1

| EC50 [2, 4] | EC50 [2, 5] | SMILES | toxicity (CC50) 2 [1] | Therapeutic index (TI) [2] | anti-HIV-1 activity (in words) [2] | CC50 at 3 days ([3]; read-out: toxicity (CC50) 1) | CC50 at 3 days ([3]; read-out: toxicity (CC50) 2) |
| --- | --- | --- | --- | --- | --- | --- | --- |
| 0.14 µg/mL |  | COC(=O)c1cc2c(c(OC)c1-c1ccc(N(C)C)cc1)OCO2 [Compound 5] | ≥ 411.41 µg/mL | >2840.91 | very significant anti-HIV-1 activity |  |  |
| 0.14 µg/mL | 490 nM | COC(=O)c1cc2c(c(OC)c1-c1ccc(N(C)C)c(C)c1)OCO2 [Compound 6] |  | >2551.02 |  | > 1250 µM | ≥ 358 µg/mL |
| 0.23 µg/mL | 640 nM | COC(=O)c1cc2c(c(OC)c1-c1ccc(N3CCOCC3)cc1)OCO2 [Compound 7] |  | 1376.35 |  | 881 µM | 317 µg/mL |
| 0.28 µg/mL | 930 nM | COC(=O)c1cc2c(c(OC)c1-c1ccc(N(c3ccccc3)c3ccccc3)cc1)OCO2 [Compound 8] |  | 862.52 |  | 802 µM | 245 µg/mL |
| ≥ 7.88 µg/mL | > 25000 nM | COc1c2c(cc(C(=O)O)c1-c1ccc(N(C)C)cc1)OCO2 [Compound 9] |  | <25.97 | activity declined notably | 649 µM | 205 µg/mL |
| 0.15 µg/mL | 420 nM | COC(=O)c1cc2c(c(OC)c1-c1ccc(N(C)C)cc1)OCO2.Cl [Compound 10] | ≥ 456.38 µg/mL | >2976.19 | activity was increased |  |  |
| 0.26 µg/mL |  | Br.COC(=O)c1cc2c(c(OC)c1-c1ccc(N(C)C)cc1)OCO2 [Compound 11] | 29.43 µg/mL | 114.19 |  |  |  |
| 3.74 µg/mL | 7500 nM | COC(=O)c1cc2c(c(OC)c1-c1ccc([N+](C)(C)Cc3ccccc3)cc1)OCO2.[Br-] [Compound 12] |  | 7.10 |  | 53.3 µM | 26.6 µg/mL |
